Results as given in ChEMBL document CHEMBL4808256, “Benzothiophene derivatives as selective estrogen receptor covalent antagonists: Design, synthesis and anti-ERα activities” (Bioorg Med Chem, 2021).
pIC50: −log10 of the molar value. Each block holds one molecule with its values, some of them ahead of it. Calls of active or inactive are those of the source. No cut-off for these calls is given here.

What was measured:
[1] = test system: Ishikawa; experiment: Antiproliferative activity against ER-positive human Ishikawa cells assessed as inhibition of cell growth incubated for 48 hrs by CCK8 assay; assay type: functional, cell-based
[2] = test system: Ishikawa; experiment: Induction of cell proliferation in human ishikawa cells at 156 to 5000 nM measured after 2 days; assay type: cell-based; details: 48 h, 5 µM, dose 156-5000 nM, time 2 day
[3] = test system: MCF7; experiment: Antiproliferative activity against ER-positive human MCF7 cells assessed as inhibition of cell growth incubated for 48 hrs by CCK8 assay; assay type: functional, cell-based; details: MCF7, 48 h
[4] = test system: MCF7; experiment: Induction of apoptosis in human MCF7 cells assessed as necrotic cells at 1 uM by AnnexinV-FITC/propidium iodide staining based flow cytometry (reference value: 0.4%); assay type: functional
[5] = test system: MCF7; experiment: Induction of apoptosis in human MCF7 cells assessed as early apoptotic cells at 10 uM by AnnexinV-FITC/propidium iodide staining based flow cytometry (reference value: 0.8%); assay type: functional
[6] = test system: MCF7; experiment: Induction of apoptosis in human MCF7 cells assessed as late apoptotic cells at 1 uM by AnnexinV-FITC/propidium iodide staining based flow cytometry (reference value: 0.7%); assay type: functional
[7] = test system: MCF7; experiment: Induction of apoptosis in human MCF7 cells assessed as late apoptotic cells at 5 uM by AnnexinV-FITC/propidium iodide staining based flow cytometry (reference value: 0.7%); assay type: functional
[8] = test system: MCF7; experiment: Induction of cell cycle arrest in human MCF7 cells assessed as accumulation at S phase at 1 uM by propidium iodide staining based flow cytometric analysis (reference value: 63.32%); assay type: functional
[9] = test system: MCF7; experiment: Induction of apoptosis in human MCF7 cells assessed as viable cells at 5 uM by AnnexinV-FITC/propidium iodide staining based flow cytometry (reference value: 96.1%); assay type: functional; details: read-out: Activity
[10] = test system: MCF7; experiment: Induction of cell cycle arrest in human MCF7 cells assessed as accumulation at G0/G1 phase at 10 uM by propidium iodide staining based flow cytometric analysis (reference value: 24.44%); assay type: functional
[11] = target: T1, Estrogen receptor (Homo sapiens) (UniProt P03372); experiment: Covalent antagonist activity at ERalpha in human MCF7 cells assessed as reduction in E2-stimulated GREB1 gene expression at 1.25 to 10 uM incubated for 24 hrs by RT-PCR analysis; assay type: cell-based; details: filed as antagonist, dose 1.25-10 µM
T1 sequence (whole entry): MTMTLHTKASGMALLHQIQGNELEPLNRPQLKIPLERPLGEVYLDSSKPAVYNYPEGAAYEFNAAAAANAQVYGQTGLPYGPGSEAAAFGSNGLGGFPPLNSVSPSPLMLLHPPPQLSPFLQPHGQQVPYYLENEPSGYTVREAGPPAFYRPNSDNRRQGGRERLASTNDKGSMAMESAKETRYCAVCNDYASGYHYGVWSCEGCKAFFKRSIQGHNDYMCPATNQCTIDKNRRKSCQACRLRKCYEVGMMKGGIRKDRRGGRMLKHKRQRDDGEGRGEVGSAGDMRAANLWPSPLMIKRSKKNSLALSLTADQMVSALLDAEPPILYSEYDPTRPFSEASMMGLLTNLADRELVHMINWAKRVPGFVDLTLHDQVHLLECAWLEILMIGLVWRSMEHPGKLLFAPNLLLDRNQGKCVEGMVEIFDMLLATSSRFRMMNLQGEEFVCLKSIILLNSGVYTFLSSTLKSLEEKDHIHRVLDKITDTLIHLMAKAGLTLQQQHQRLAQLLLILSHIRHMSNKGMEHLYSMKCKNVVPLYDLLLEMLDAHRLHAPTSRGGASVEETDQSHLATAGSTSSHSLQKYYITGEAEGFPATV

[12] = target: T1, Estrogen receptor (Homo sapiens); experiment: Antagonist activity at ERalpha receptor in human ishikawa cells assessed as suppression of E2-stimulated PGR expression at 1.25 to 10 uM by RT-PCR analysis; assay type: cell-based; details: filed as antagonist, dose 1.25-10 µM
[13] = test system: MCF7; experiment: Induction of apoptosis in human MCF7 cells assessed as necrotic cells at 10 uM by AnnexinV-FITC/propidium iodide staining based flow cytometry (reference value: 0.4%); assay type: functional
[14] = test system: MCF7; experiment: Induction of apoptosis in human MCF7 cells assessed as late apoptotic cells at 10 uM by AnnexinV-FITC/propidium iodide staining based flow cytometry (reference value: 0.7%); assay type: functional
[15] = test system: MCF7; experiment: Induction of cell cycle arrest in human MCF7 cells assessed as accumulation at G0/G1 phase at 5 uM by propidium iodide staining based flow cytometric analysis (reference value: 24.44%); assay type: functional
[16] = test system: MCF7; experiment: Induction of cell cycle arrest in human MCF7 cells assessed as accumulation at G0/G1 phase at 1 uM by propidium iodide staining based flow cytometric analysis (reference value: 24.44%); assay type: functional
[17] = test system: MCF7; experiment: Potency index, ratio of raloxifene IC50 to test compound IC50 for antiproliferative activity against ER-positive human MCF7 cells; assay type: functional
[18] = test system: MCF7; experiment: Induction of apoptosis in human MCF7 cells assessed as necrotic cells at 5 uM by AnnexinV-FITC/propidium iodide staining based flow cytometry (reference value: 0.4%); assay type: functional
[19] = test system: MCF7; experiment: Downregulation of ERalpha protein expression in human MCF7 cells at 5 uM incubated for 24 hrs by DAPI staining based immunofluorescence microscopy; assay type: functional, cell-based
[20] = test system: MCF7; experiment: Induction of cell cycle arrest in human MCF7 cells assessed as accumulation at S phase at 5 uM by propidium iodide staining based flow cytometric analysis (reference value: 63.32%); assay type: functional
[21] = test system: MCF7; experiment: Induction of cell cycle arrest in human MCF7 cells assessed as accumulation at S phase at 10 uM by propidium iodide staining based flow cytometric analysis (reference value: 63.32%); assay type: functional
[22] = test system: MCF7; experiment: Induction of apoptosis in human MCF7 cells assessed as viable cells at 10 uM by AnnexinV-FITC/propidium iodide staining based flow cytometry (reference value: 96.1%); assay type: functional; details: read-out: Activity
[23] = test system: MCF7; experiment: Induction of apoptosis in human MCF7 cells assessed as early apoptotic cells at 1 uM by AnnexinV-FITC/propidium iodide staining based flow cytometry (reference value: 0.8%); assay type: functional
[24] = test system: MDA-MB-231; experiment: Antiproliferative activity against ER-negative human MDA-MB-231 cells assessed as inhibition of cell growth incubated for 48 hrs by CCK8 assay; assay type: functional, cell-based; details: MDA-MB-231, 48 h
[25] = test system: MCF7; experiment: Induction of cell cycle arrest in human MCF7 cells assessed as accumulation at G2/M phase at 10 uM by propidium iodide staining based flow cytometric analysis (reference value: 12.24%); assay type: functional
[26] = test system: MCF7; experiment: Induction of apoptosis in human MCF7 cells assessed as early apoptotic cells at 5 uM by AnnexinV-FITC/propidium iodide staining based flow cytometry (reference value: 0.8%); assay type: functional
[27] = test system: MCF7; experiment: Induction of cell cycle arrest in human MCF7 cells assessed as accumulation at G2/M phase at 1 uM by propidium iodide staining based flow cytometric analysis (reference value: 12.24%); assay type: functional
[28] = test system: MCF7; experiment: Induction of apoptosis in human MCF7 cells assessed as viable cells at 1 uM by AnnexinV-FITC/propidium iodide staining based flow cytometry (reference value: 96.1%); assay type: functional; details: read-out: Activity
[29] = target: T1, Estrogen receptor (Homo sapiens); experiment: Covalent antagonist activity at ERalpha in human MCF7 cells assessed as reduction in E2-stimulated TFF1 gene expression at 1.25 to 10 uM incubated for 24 hrs by RT-PCR analysis; assay type: cell-based; details: filed as antagonist, dose 1.25-10 µM
[30] = test system: MCF7; experiment: Induction of cell cycle arrest in human MCF7 cells assessed as accumulation at G2/M phase at 5 uM by propidium iodide staining based flow cytometric analysis (reference value: 12.24%); assay type: functional

Compound: CC/C(=C(\c1ccccc1)c1ccc(OCCN(C)C)cc1)c1ccccc1 [TAMOXIFEN]
pIC50 [1]: 4.84

Compound: CC/C(=C(\c1ccc(O)cc1)c1ccc(OCCN(C)C)cc1)c1ccccc1 [AFIMOXIFENE]
Activity [2]: Toxic

Compound: C=CC(=O)N1CC(Oc2ccc(C(=O)c3c(-c4ccc(O)cc4)sc4cc(O)ccc34)cc2)C1
pIC50 [3]: 4.50 | pIC50 [1]: 4.78

Compound: O=C(c1ccc(OCCNC/C=C/C(=O)N2CCCC2)cc1)c1c(-c2ccc(O)cc2)sc2cc(O)ccc12
pIC50 [3]: 4.62 | pIC50 [1]: 4.34

Compound: CN(C)C(=O)/C=C/CNCCOc1ccc(C(=O)c2c(-c3ccc(O)cc3)sc3cc(O)ccc23)cc1
pIC50 [3]: < 4.30 | pIC50 [1]: 4.31

Compound: C/C=C/C(=O)NCCOc1ccc(C(=O)c2c(-c3ccc(O)cc3)sc3cc(O)ccc23)cc1
pIC50 [3]: < 4.30 | pIC50 [1]: < 4.00

Compound: O=C(c1ccc(OCCNC/C=C/C(=O)N2CCC2)cc1)c1c(-c2ccc(O)cc2)sc2cc(O)ccc12
pIC50 [3]: 4.62 | pIC50 [1]: 4.53

Compound: CN(C)C(=O)/C=C/CN1CC(Oc2ccc(C(=O)c3c(-c4ccc(O)cc4)sc4cc(O)ccc34)cc2)C1
pIC50 [3]: 4.53 | pIC50 [1]: 4.53

Compound: C=CC(=O)NCCOc1ccc(C(=O)c2c(-c3ccc(O)cc3)sc3cc(O)ccc23)cc1
pIC50 [3]: 4.43 | pIC50 [1]: < 4.00

Compound: C=C(C)C(=O)N1CCN(c2ccc(C(=O)c3c(-c4ccc(O)cc4)sc4cc(O)ccc34)cc2)CC1
pIC50 [3]: < 4.30 | pIC50 [1]: < 4.00

Compound: C/C=C/C(=O)N1CC(Oc2ccc(C(=O)c3c(-c4ccc(O)cc4)sc4cc(O)ccc34)cc2)C1
pIC50 [3]: 4.63 | pIC50 [1]: 4.65

Compound: O=C(c1ccc(OC2CN(C/C=C/C(=O)N3CCC3)C2)cc1)c1c(-c2ccc(O)cc2)sc2cc(O)ccc12
pIC50 [3]: 4.63 | pIC50 [1]: 4.59

Compound: C=CC(=O)N1CCN(c2ccc(C(=O)c3c(-c4ccc(O)cc4)sc4cc(O)ccc34)cc2)CC1
pIC50 [3]: < 4.30 | pIC50 [1]: < 4.00

Compound: O=C(c1ccc(OC2CN(CCCC(=O)N3CCCCC3)C2)cc1)c1c(-c2ccc(O)cc2)sc2cc(O)ccc12
pIC50 [3]: < 4.30 | pIC50 [1]: < 4.30 | pIC50 [24]: < 4.30

Compound: COCCNC(=O)/C=C/CNCCOc1ccc(C(=O)c2c(-c3ccc(O)cc3)sc3cc(O)ccc23)cc1
pIC50 [3]: 4.37 | pIC50 [1]: 4.26

Compound: C=C(C)C(=O)NCCOc1ccc(C(=O)c2c(-c3ccc(O)cc3)sc3cc(O)ccc23)cc1
pIC50 [3]: 4.54 | pIC50 [1]: 4.53

The remaining molecules from weak to strong by pIC50 [3], led by results:

pIC50 [3]: 4.64
Compound: C=C(C)C(=O)N1CC(Oc2ccc(C(=O)c3c(-c4ccc(O)cc4)sc4cc(O)ccc34)cc2)C1
pIC50 [1]: 4.65

pIC50 [3]: 4.66
Compound: O=C(c1ccc(OCCN2CCCCC2)cc1)c1c(-c2ccc(O)cc2)sc2cc(O)ccc12 [RALOXIFENE]
pIC50 [1]: 4.55

pIC50 [3]: 4.88 | pIC50 [24]: < 4.30
Compound: CNC(=O)/C=C/CNCCOc1ccc(C(=O)c2c(-c3ccc(O)cc3)sc3cc(O)ccc23)cc1
pIC50 [1]: 4.29

pIC50 [3]: 4.94
Compound: O=C(c1ccc(OCCNC/C=C/C(=O)N2CCCCC2)cc1)c1c(-c2ccc(O)cc2)sc2cc(O)ccc12
pIC50 [1]: 5.20

pIC50 [3]: 4.95 | pIC50 [24]: < 4.30
Compound: CNC(=O)/C=C/CN1CC(Oc2ccc(C(=O)c3c(-c4ccc(O)cc4)sc4cc(O)ccc34)cc2)C1
pIC50 [1]: 4.35

pIC50 [3]: 5.08 | pIC50 [24]: < 4.30
Compound: O=C(c1ccc(OCCNC/C=C/C(=O)N2CCOCC2)cc1)c1c(-c2ccc(O)cc2)sc2cc(O)ccc12
pIC50 [1]: 4.60

pIC50 [3]: 5.24
Compound: O=C(c1ccc(OC2CN(C/C=C/C(=O)N3CCOCC3)C2)cc1)c1c(-c2ccc(O)cc2)sc2cc(O)ccc12
Ratio IC50 [17]: 4 | pIC50 [1]: 4.74

pIC50 [3]: 5.88 | inhibition [11]: Active | inhibition [12]: Active | pIC50 [24]: < 4.30 | inhibition [29]: Active
Compound: O=C(c1ccc(OC2CN(C/C=C/C(=O)N3CCCCC3)C2)cc1)c1c(-c2ccc(O)cc2)sc2cc(O)ccc12
Activity [4]: 1.2% | Activity [5]: 16.6% | Activity [6]: 3.4% | Activity [7]: 9.7% | Activity [8]: 57.31% | viability at 5 µM [9]: 77.4% | Activity [10]: 38.85% | Activity [13]: 1.3% | Activity [14]: 15.8% | Activity [15]: 32.84% | Activity [16]: 28.53% | Ratio IC50 [17]: 20 | Activity [18]: 1.4% | inhibition [19]: Active | Activity [20]: 54.23% | Activity [21]: 49.43% | viability at 10 µM [22]: 66.3% | Activity [23]: 8.3% | pIC50 [1]: 4.99 | Activity [25]: 11.72% | Activity [26]: 11.5% | Activity [2]: Non-Toxic | Activity [27]: 14.1% | viability at 1 µM [28]: 87.1% | Activity [30]: 12.93%
